Results taken from patent publication US20100143993A1, “PROCESS FOR FERMENTIVE PREPARATIONFOR ALCOLHOLS AND RECOVERY OF PRODUCT” (E.I. DU PONT DE NEMOURS AND COMPANY, priority 2008, published 2010).
Where “and” joins values, the source holds several entries; their conditions need not be identical. Equal entries are not always repeated.

Legend:
[1] = tested on: Lactobacillus fermentum (ATCC 14931); assay: Glucose Uptake Index of Lactobacillus fermentum culture with ionic liquid; assay type: cell-based; conditions: 5% (v/v) of the ionic liquid phase, MRS medium, 30° C., 16 hours after addition
[2] = tested on: Lactobacillus zeae (ATCC 15820); assay: Glucose Uptake Index of Lactobacillus zeae culture with ionic liquid; assay type: cell-based; conditions: 5% (v/v) of the ionic liquid phase, MRS medium, 30° C., 16 hours after addition
Description: This media was made per bottle instructions using sterilized water, and was then again filter sterilized before use. The test tubes were incubated at 30° C. at 175 rpm in an Inova Incubator (Karlsbad, Sweden). After 24 hours, the test tubes were removed and stored at 4° C.
A portion (50 μL) of each stock culture prepared as above was inoculated into separate 15 mL sterile polypropylene culture tubes containing fresh MRS medium (3 mL). These tubes were incubated for four hours at 30° C. at 175 rpm. After four hours, one of these culture tubes was inoculated with 150 μL (5% v/v) of each of the ionic liquids as listed in Table 1 below. […] Each tube that was inoculated with an ionic liquid was also paired with a tube that received no ionic liquid and was used as a control.
All culture tubes were then incubated again under the same conditions for another 16 hours. After 16 hours, the culture tubes were stored at −80° C. Analytical samples were taken from each culture tube by thawing the samples and spinning them at 28,000 rpm and 20° C. for ten minutes in a Sorvall Instruments RC3C (Newtown Conn.) centrifuge. One milliliter of supernatant was removed from each tube and was subjected to high performance liquid chromatography (HPLC) analysis using an Agilent (Palo Alto Calif.) HPLC 1100 with a BioRad Aminex 87-H using 0.008 N sulfuric acid with both diode array and refractive index detection, and an Agilent HPLC 1100 with a Shodex OH-pak column using 0.01 N sulfuric acid. Data analysis was performed using the Agilent Chemstation software and Microsoft Excel.
The glucose uptake index was calculated by taking the total glucose consumed in a fermentation sample, whether or not the sample contained an ionic liquid, and dividing it by the total initial glucose present in the broth at the start of fermentation.

[3] = Extraction of ethanol from an aqueous solution by ionic liquid; conditions: for Ethanol Remaining in Solution: aqueous solution about 31 g/L ethanol; for Ethanol Remaining in Solution / Ethanol Extracted: 5 vol % ionic liquid; for Ethanol Remaining in Solution / Ethanol: overnight equilibration, HPLC; for Ethanol: ethanol concentration in aqueous solution (about 31 g/L at start) after mixing with 5 vol % ionic liquid; for Ethanol Extracted: percentage relative to control without ionic liquid (Example 31)
[4] = Extraction of isobutanol from an aqueous solution by ionic liquid; conditions: for Isobutanol Remaining in Solution: aqueous solution about 31 g/L isobutanol; for Isobutanol Remaining in Solution / Isobutanol Extracted: 5 vol % ionic liquid; for Isobutanol Remaining in Solution / Isobutanol: overnight equilibration, HPLC; for Isobutanol: isobutanol concentration in aqueous solution (about 31 g/L at start) after mixing with 5 vol % ionic liquid; for Isobutanol Extracted: percentage relative to control without ionic liquid (Example 31)
Description: Ethanol and isobutanol concentration in the solution was measured using HPLC as described above following thorough mixing and overnight equilibration of the contents of the vial.

Compound | GUI of Sample (Glucose Utilization Index) [1] | GUI of Sample (Glucose Utilization Index) [2] | Ethanol Remaining in Solution [3] | Ethanol [3] | Ethanol Extracted [3] | Isobutanol Remaining in Solution [4] | Isobutanol [4] | Isobutanol Extracted [4]
1-butyl-3-methylimidazolium bis(trifluoromethylsulfonyl)imide [[BMIM] [Tf2N]] | 26.8 | 64.4 | – | – | – | – | – | –
1-butyl-3-methylimidazolium 1,1,2-trifluoro-2-(perfluoroethoxy)ethanesulfonate [[BMIM] [TPES]] | 7.21 | 5.06 | – | – | – | – | – | –
1-butyl-3-methylimidazolium 1,1,2,3,3,3-hexafluoropropanesulfonate [[BMIM] [HFPS]] | 8.0 and 11.5 | 21.2 and 34.3 | – | – | – | – | – | –
1-ethyl-3-methylimidazolium bis(pentafluoroethylsulfonyl)imide [[EMIM] [BEI]] | 25.5 | 36.0 | – | – | – | – | – | –
tetradecyl(tri-n-hexyl)phosphonium 1,1,2-trifluoro-2-(perfluoroethoxy)ethanesulfonate [[6,6,6,14-P] [TPES]] | 92.8 | 62.8 | – | – | – | – | – | –
1-butyl-3-methylimidazolium 1,1,2-trifluoro-2-(trifluoromethoxy)ethanesulfonate [[BMIM] [TTES]] | 16.2 | 58.8 | – | – | – | – | – | –
1-hexyl-3-methylimidazolium bis(trifluoromethylsulfonyl)imide [[HMIM] [Tf2N]] | 19.5 | 66.2 | 31.3 g/L | 678 mM | 0.76% | 28.8 g/L | 388 mM | 7.28%
CCCCCCn1cc[n+](C)c1.FC(F)(F)C(F)(F)[P-](F)(F)(F)(C(F)(F)C(F)(F)F)C(F)(F)C(F)(F)F [[HMIM] [FAP], 1-hexyl-3-methylimidazolium tris(pentafluoroethyl)trifluorophosphate] | 84.7 | 51.9 | – | 680 mM | 0.45% | – | 404 mM | 3.14%
1-ethyl-3-methylimidazolium bis(trifluoromethylsulfonyl)imide [[EMIM] [Tf2N]] | 54.5 | 51.2 | 30.9 g/L | 670 mM | 1.96% | 28.8 g/L | 389 mM | 7.11%
1-butyl-3-methylimidazolium 2-(1,2,2,2-tetrafluoroethoxy)-1,1,2,2-tetrafluoroethanesulfonate [[BMIM] [FS]] | 24.0 | 54.4 | – | – | – | – | – | –
3-methyl-1-propylpyridinium bis(trifluoromethylsulfonyl)imide [[PMPy] [Tf2N]] | 26.1 | 63.5 | – | – | – | – | – | –
CCCCn1cc[n+](C)c1.F[P-](F)(F)(F)(F)F [[BMIM] [PF6], 1-butyl-3-methylimidazolium hexafluorophosphate] | – | 55.4 | – | – | – | – | – | –
1-butyl-3-methylpyrrolidinium bis(trifluoromethylsulfonyl)imide [[BMP] [Tf2N]] | 0.96 | 49.8 | 31.1 g/L | 676 mM | 1.17% | 29.0 g/L | 391 mM | 6.33%
CCCCn1cc[n+](C)c1.F[B-](F)(F)F [[BMIM] [BF4], 1-butyl-3-methylimidazolium tetrafluoroborate] | – | 11.8 | – | – | – | – | – | –
